Data: PMC9189904, “Functional Properties of Two Distinct PTH1R Mutants Associated With Either Skeletal Defects or Pseudohypoparathyroidism” (JBMR Plus, 2022)
Residue numbers refer to the chain shown, from its start. Non-standard residues stand in square brackets, D forms with d. Residues, ends and D or L forms follow the SMILES beside them. No end group written: not given here. hArg = N=C(N)NCCCC[C@H](N)C(=O)O; Ac5c = NC1(C(=O)O)CCCC1; Aib = CC(C)(N)C(=O)O

Columns and labels:
PTH1R‐V204E = target: T1, PTH1R‐V204E (Homo sapiens, UniProt Q03431, V204E); assay: GloSensor cAMP signaling assay in transiently transfected GS-22a cells; assay type: cell-based; settings: for EC50: Table 2, N-terminal analogs, means of four or three (M-PTH(1-11)) experiments, each in duplicate; for EC50 / pEC50: GS-22a cells; for pEC50: Suppl. Table 2, full-length ligands, mean ± SEM of three experiments; for Emax, %: Suppl. Table 2, percent of maximum response of the same ligand on PTH1R-WT, three experiments
T1 construct: expressed in transfected cells; plasmid TG-928 made by VectorBuilder
T1 sequence (Q03431 27-593 E90Y/S91D/E92V/E93P/K95Y/E96A/V204E): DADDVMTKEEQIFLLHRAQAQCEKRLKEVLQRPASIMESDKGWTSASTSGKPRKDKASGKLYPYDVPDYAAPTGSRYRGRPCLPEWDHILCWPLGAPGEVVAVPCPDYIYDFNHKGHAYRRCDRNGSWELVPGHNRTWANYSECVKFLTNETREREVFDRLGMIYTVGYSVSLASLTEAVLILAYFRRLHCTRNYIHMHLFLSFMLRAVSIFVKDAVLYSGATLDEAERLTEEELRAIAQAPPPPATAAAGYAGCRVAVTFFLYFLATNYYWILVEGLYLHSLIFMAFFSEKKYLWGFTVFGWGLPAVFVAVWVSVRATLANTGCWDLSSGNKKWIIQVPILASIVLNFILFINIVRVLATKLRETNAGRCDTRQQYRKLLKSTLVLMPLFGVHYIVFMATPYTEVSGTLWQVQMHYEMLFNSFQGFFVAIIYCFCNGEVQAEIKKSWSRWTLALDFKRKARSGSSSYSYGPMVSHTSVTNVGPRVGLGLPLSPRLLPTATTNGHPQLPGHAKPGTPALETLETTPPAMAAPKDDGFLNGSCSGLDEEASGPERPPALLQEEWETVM
Experimental: (§1) GS‐22a cells are derived from HEK293 cells (American Type Culture Collection [ATCC], Manassas, VA, USA; CRL‐1573) by stably transfection with the luciferase‐based GloSensor (Promega, San Luis Obispo, CA, USA) cAMP reporter plasmid pGloSensor‐22F. The cells were cultured in Dulbecco's modified Eagle medium (DMEM) supplemented with fetal bovine serum (10%) in a humidified incubator containing 5% CO2 and set at 37°C, and seeded into 96‐well or six‐well plates for transient DNA transfection and functional assays. Cells were transfected when the monolayers were 85%–95% of confluency using Lipofectamine™ 2000 (Thermo Fisher Scientific, Waltham, MA, USA) and 100 ng of DNA per well for 96‐well plates and 1000 ng of DNA per well for six‐well plates. Assays were performed 48 hours after transfection, and media was changed 2–4 hours prior to assay.
(§2) PTH1R‐mediated cAMP signaling was assessed via the GloSensor cAMP reporter in GS‐22a cells in white 96‐well plates. Assays were performed at ambient room temperature. For each plate, the media was replaced with CO2‐independent media (Thermo Fisher Scientific; Cat. No. 18045088) containing luciferin (0.5mM) and the plate was placed into a PerkinElmer Envision plate reader and cAMP‐dependent luminescence, as counts per second (cps), was measured at 2‐minute intervals for 15 minutes, during which time luciferin uptake occurred and luminescence reached a near steady‐state baseline. The plate was then removed from the plate reader, media (vehicle) or test ligands were added at varying concentrations, and luminescence was again measured at 2‐minute intervals for an additional 30–60 minutes.
(§3) Data were processed using Microsoft Excel and GraphPad Prism 8.0 software and analyzed statistically using a Student's t test (two‐tailed and unequal variances). Dose–response curves were fit to the data by using a three‐parameter sigmoidal dose–response equation with nonlinear regression, which yielded the reported response parameters of potency (EC50), efficacy (Emax), and […].

PTH1R‐R186H = target: T2, PTH1R‐R186H (Homo sapiens, UniProt Q03431, R186H); assay: as above; assay type: cell-based; settings: for EC50: Table 2, N-terminal analogs, means of four or three (M-PTH(1-11)) experiments, each in duplicate; for EC50 / pEC50: GS-22a cells; for pEC50: Suppl. Table 2, full-length ligands, mean ± SEM of three experiments; for Emax, %: Suppl. Table 2, percent of maximum response of the same ligand on PTH1R-WT, three experiments
T2 construct: expressed in transfected cells; plasmid TG-907 made by VectorBuilder
T2 sequence (Q03431 27-593 E90Y/S91D/E92V/E93P/K95Y/E96A/R186H): T1 sequence (Q03431 27-593 E90Y/S91D/E92V/E93P/K95Y/E96A/V204E) with R160H, E178V
Experimental: as §1, §2, §3

PTH1R‐WT = target: T3, PTH1R‐WT (Homo sapiens, UniProt Q03431); assay: as above; assay type: cell-based; settings: for EC50: Table 2, N-terminal analogs, means of four or three (M-PTH(1-11)) experiments, each in duplicate; for EC50 / pEC50: GS-22a cells; for Emax: Table 2, percent of maximum response of the same ligand on PTHR1-WT, four or three (M-PTH(1-11)) experiments; for pEC50: Suppl. Table 2, full-length ligands, mean ± SEM of three experiments, SEM; for Emax, %: Suppl. Table 2, percent of maximum response of the same ligand on PTH1R-WT, three experiments
T3 construct: expressed in transfected cells; plasmid TG-906 made by VectorBuilder
T3 sequence (Q03431 27-593 E90Y/S91D/E92V/E93P/K95Y/E96A): T1 sequence (Q03431 27-593 E90Y/S91D/E92V/E93P/K95Y/E96A/V204E) with E178V
Experimental: as §1, §2, §3

PTH1R‐P132L = target: T4, PTH1R‐P132L (Homo sapiens, UniProt Q03431, P132L); assay: as above; assay type: cell-based; settings: Table 1, percent of maximum response of the same ligand on PTH1R-WT, mean ± SEM of five experiments
T4 construct: expressed in transfected cells; plasmid TG-395 in pCDNA1
T4 sequence (Q03431 27-593 E90Y/S91D/E92V/E93P/K95Y/E96A/P132L): T1 sequence (Q03431 27-593 E90Y/S91D/E92V/E93P/K95Y/E96A/V204E) with P106L, E178V
Experimental: as §1, §2, §3

[1] = target: HA‐tagged human PTH1R‐V204E (human) (UniProt Q03431)
[2] = Table 2, percent of maximum response of the same ligand on PTHR1-WT, four or three (M-PTH(1-11)) experiments
[3] = Table 1, percent of maximum response of the same ligand on PTH1R-WT, mean ± SEM of five experiments, SEM

Molecule: SVSEIQLMHNLGKHLNSMERVEWLRKKL-NH2 [PTH(1‐28), hPTH(1‐28)]
- EC50 (PTH1R‐V204E): 0.447 nM
- Emax (PTH1R‐V204E; [2]): 78 ± 10%
- EC50 (PTH1R‐R186H): 0.575 nM
- Emax (PTH1R‐R186H; [2]): 98 ± 10%
- EC50 (PTH1R‐WT): 0.776 nM
- Emax (PTH1R‐WT): 100%

Molecule: hPTHrP(1‐141) [PTHrP(1-141)]
- pEC50 (PTH1R‐V204E; SEM): 8.55
- Emax, % (PTH1R‐V204E): 133 ± 12%
- pEC50 (PTH1R‐R186H; SEM): 8.90
- Emax, % (PTH1R‐R186H): 108 ± 3%
- pEC50 (PTH1R‐WT): 8.65
- Emax, % (PTH1R‐WT): 100 ± 0%

Molecule: hPTH(1‐84) [PTH(1-84)]
- pEC50 (PTH1R‐V204E; SEM): 9.19
- Emax, % (PTH1R‐V204E): 115 ± 11%
- pEC50 (PTH1R‐R186H; SEM): 9.25
- Emax, % (PTH1R‐R186H): 96 ± 4%
- pEC50 (PTH1R‐WT): 9.05
- Emax, % (PTH1R‐WT): 100 ± 0%

Molecule: CC[C@H](C)[C@H](NC(=O)[C@H](CCC(=O)O)NC(=O)C(C)(C)NC(=O)[C@@H](NC(=O)C1(N)CCCC1)C(C)C)C(=O)N[C@@H](CCC(N)=O)C(=O)N[C@@H](CC(C)C)C(=O)N[C@@H](CCSC)C(=O)N[C@@H](Cc1c[nH]cn1)C(=O)N[C@@H](CCC(N)=O)C(=O)N[C@@H](CCCCNC(=N)N)C(N)=O [M‐PTH(1‐11), modified (M)‐PTH(1‐11)] (H-[Ac5c]V[Aib]EIQLMHQ[hArg]-NH2)
- EC50 (PTH1R‐V204E): 0.759 nM
- Emax (PTH1R‐V204E; [2]): 80 ± 11%
- EC50 (PTH1R‐R186H): 2.82 nM
- Emax (PTH1R‐R186H; [2]): 126 ± 14%
- EC50 (PTH1R‐WT): 0.191 nM
- Emax (PTH1R‐WT): 100%

Molecule: CC[C@H](C)[C@H](NC(=O)[C@H](CCC(=O)O)NC(=O)[C@H](CO)NC(=O)[C@@H](NC(=O)[C@@H](N)CO)C(C)C)C(=O)N[C@@H](CCC(N)=O)C(=O)N[C@@H](CC(C)C)C(=O)N[C@@H](CCSC)C(=O)N[C@@H](Cc1c[nH]cn1)C(=O)N[C@@H](CC(N)=O)C(=O)N[C@@H](CC(C)C)C(=O)NCC(=O)N[C@@H](CCCCN)C(=O)N[C@@H](Cc1c[nH]cn1)C(=O)N[C@@H](CC(C)C)C(=O)N[C@@H](CC(N)=O)C(=O)N[C@@H](CO)C(=O)N[C@@H](CCSC)C(=O)N[C@@H](CCC(=O)O)C(=O)N[C@@H](CCCNC(=N)N)C(=O)N[C@H](C(=O)N[C@@H](CCC(=O)O)C(=O)N[C@@H](Cc1c[nH]c2ccccc12)C(=O)N[C@@H](CC(C)C)C(=O)N[C@@H](CCCNC(=N)N)C(=O)N[C@@H](CCCCN)C(=O)N[C@@H](CCCCN)C(=O)N[C@@H](CC(C)C)C(=O)N[C@@H](CCC(N)=O)C(=O)N[C@@H](CC(=O)O)C(=O)N[C@H](C(=O)N[C@@H](Cc1c[nH]cn1)C(=O)N[C@@H](CC(N)=O)C(=O)N[C@@H](Cc1ccccc1)C(N)=O)C(C)C)C(C)C [PTH(1‐34), human(h)PTH(1‐34)]
- Emax (PTH1R‐V204E; [3]): 81 ± 4%
- Emax (PTH1R‐R186H; [3]): 118 ± 4%
- Emax (PTH1R‐P132L): ~45%
- Emax, % (PTH1R‐P132L; SEM): 44 ± 4%

Molecule: human(h)PTH(1‐34) (peptide)
- cAMP‐dependent GloSensor luminescence in transfected GS‐22a cells, potency: pEC50 with EC50 (nM) in parentheses [1]: 0.33 nM
